According to ChEMBL document CHEMBL1137098, “Design, synthesis, and biochemical evaluation of novel alpha V beta 3 integrin ligands” (Bioorg Med Chem Lett, 2004):
pIC50: −log10 of the molar value.

Legend:
Type in all cases: protein-complex assay
Integrin alpha-V/beta-3 = Integrin alpha-V/beta-3 (Homo sapiens, UniProt P05106+P06756); test: In vitro inhibitory activity against alpha v beta 3 vitronectin protein interaction was measured by ELISA
Integrin alpha-V/beta-5 = Integrin alpha-V/beta-5 (Homo sapiens, UniProt P06756+P18084); test: In vitro inhibitory activity against alpha v beta 5 vitronectin protein interaction was measured by ELISA
[1] = target: Integrin alpha-IIb/beta-3 (Homo sapiens, UniProt P05106+P08514); test: In vitro inhibitory activity against alpha IIb beta IIIa fibrinogen protein interaction was measured by ELISA
Integrin alpha-5/beta-1 = Integrin alpha-5/beta-1 (Homo sapiens, UniProt P05556+P08648); test: In vitro inhibitory activity against alpha 5 beta 1 fibronectin protein interaction was measured by ELISA

Sequence of Integrin alpha-IIb/beta-3 (P05106 27-788 limits assumed): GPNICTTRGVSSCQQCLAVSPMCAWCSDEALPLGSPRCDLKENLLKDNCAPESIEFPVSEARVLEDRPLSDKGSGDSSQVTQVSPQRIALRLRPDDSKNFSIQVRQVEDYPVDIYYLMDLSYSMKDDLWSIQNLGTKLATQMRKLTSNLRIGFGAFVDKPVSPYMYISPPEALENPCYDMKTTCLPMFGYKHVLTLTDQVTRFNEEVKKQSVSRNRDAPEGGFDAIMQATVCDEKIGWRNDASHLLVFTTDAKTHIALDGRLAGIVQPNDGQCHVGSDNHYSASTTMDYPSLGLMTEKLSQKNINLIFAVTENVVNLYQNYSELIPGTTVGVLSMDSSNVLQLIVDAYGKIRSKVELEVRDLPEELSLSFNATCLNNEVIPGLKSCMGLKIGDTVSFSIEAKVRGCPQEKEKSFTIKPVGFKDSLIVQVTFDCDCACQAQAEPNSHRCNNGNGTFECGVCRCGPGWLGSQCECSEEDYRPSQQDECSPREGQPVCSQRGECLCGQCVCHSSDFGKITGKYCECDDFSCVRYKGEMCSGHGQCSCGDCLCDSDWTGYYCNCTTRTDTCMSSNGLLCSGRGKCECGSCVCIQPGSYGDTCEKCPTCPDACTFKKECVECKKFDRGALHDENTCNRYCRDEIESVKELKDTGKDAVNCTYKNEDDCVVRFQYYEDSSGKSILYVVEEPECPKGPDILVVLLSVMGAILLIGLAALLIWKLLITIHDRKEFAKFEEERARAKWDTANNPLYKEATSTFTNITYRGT
Sequence of Integrin alpha-IIb/beta-3 (P08514 32-887 limits assumed): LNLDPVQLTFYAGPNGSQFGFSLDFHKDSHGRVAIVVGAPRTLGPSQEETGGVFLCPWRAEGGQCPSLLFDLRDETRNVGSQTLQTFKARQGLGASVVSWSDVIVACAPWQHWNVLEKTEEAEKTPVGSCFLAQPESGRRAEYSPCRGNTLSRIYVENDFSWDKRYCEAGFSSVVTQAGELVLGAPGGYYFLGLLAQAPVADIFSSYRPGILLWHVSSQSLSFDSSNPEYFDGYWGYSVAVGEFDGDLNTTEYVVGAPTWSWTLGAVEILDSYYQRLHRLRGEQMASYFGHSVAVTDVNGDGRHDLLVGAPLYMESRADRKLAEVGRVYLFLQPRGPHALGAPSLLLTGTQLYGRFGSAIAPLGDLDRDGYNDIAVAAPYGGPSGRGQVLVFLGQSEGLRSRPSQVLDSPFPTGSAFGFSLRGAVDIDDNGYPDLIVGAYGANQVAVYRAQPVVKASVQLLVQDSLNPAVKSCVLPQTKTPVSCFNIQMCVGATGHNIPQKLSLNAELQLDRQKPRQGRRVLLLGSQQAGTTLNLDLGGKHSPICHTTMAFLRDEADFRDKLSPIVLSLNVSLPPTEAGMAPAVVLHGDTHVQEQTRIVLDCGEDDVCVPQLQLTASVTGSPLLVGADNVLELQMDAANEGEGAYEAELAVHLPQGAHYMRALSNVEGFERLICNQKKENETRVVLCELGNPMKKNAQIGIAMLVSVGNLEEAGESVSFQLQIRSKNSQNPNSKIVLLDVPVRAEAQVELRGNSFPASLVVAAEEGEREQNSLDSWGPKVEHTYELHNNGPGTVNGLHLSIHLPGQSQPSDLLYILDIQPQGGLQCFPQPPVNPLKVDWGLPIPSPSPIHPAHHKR
Sequence of Integrin alpha-IIb/beta-3 (P08514 891-1039 limits assumed): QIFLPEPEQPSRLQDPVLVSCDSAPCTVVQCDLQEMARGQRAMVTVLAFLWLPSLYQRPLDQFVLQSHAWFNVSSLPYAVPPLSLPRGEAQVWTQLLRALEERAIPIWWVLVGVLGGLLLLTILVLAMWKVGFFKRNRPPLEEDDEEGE
Sequence of Integrin alpha-V/beta-3 (P05106 27-788 limits assumed): as the sequence (P05106 27-788 limits assumed) above
Sequence of Integrin alpha-V/beta-3 (P06756 31-889 limits assumed): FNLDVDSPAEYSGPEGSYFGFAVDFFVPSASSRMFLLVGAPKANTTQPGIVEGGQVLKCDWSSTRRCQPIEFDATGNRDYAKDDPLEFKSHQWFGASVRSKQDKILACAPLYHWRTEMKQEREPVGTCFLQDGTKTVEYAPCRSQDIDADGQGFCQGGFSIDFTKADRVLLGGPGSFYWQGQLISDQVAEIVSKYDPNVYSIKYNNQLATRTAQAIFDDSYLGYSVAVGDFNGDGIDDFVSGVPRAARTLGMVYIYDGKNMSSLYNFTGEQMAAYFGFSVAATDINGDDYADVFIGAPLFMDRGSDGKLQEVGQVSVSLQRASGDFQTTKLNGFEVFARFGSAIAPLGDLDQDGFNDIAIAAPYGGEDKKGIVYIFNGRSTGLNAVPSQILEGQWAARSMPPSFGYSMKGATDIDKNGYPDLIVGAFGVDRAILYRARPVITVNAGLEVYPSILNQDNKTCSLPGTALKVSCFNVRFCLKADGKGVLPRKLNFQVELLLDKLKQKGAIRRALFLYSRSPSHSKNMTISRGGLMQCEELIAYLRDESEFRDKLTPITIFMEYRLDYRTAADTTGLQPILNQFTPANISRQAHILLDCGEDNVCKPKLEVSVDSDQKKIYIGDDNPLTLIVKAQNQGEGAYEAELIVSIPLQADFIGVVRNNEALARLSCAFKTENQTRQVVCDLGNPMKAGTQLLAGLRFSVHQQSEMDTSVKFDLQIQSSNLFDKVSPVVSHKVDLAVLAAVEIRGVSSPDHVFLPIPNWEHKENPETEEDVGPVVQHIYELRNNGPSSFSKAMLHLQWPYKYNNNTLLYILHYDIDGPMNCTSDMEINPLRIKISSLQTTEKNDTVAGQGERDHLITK
Sequence of Integrin alpha-V/beta-3 (P06756 891-1048 limits assumed): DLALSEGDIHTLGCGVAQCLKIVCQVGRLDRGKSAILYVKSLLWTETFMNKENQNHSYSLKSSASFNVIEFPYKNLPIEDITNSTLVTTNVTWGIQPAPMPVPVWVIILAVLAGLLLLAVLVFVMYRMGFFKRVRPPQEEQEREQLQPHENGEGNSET
Sequence of Integrin alpha-V/beta-5 (P06756 31-889 limits assumed): as the sequence (P06756 31-889 limits assumed) above
Sequence of Integrin alpha-V/beta-5 (P06756 891-1048 limits assumed): as the sequence (P06756 891-1048 limits assumed) above
Sequence of Integrin alpha-V/beta-5 (P18084 24-799 limits assumed): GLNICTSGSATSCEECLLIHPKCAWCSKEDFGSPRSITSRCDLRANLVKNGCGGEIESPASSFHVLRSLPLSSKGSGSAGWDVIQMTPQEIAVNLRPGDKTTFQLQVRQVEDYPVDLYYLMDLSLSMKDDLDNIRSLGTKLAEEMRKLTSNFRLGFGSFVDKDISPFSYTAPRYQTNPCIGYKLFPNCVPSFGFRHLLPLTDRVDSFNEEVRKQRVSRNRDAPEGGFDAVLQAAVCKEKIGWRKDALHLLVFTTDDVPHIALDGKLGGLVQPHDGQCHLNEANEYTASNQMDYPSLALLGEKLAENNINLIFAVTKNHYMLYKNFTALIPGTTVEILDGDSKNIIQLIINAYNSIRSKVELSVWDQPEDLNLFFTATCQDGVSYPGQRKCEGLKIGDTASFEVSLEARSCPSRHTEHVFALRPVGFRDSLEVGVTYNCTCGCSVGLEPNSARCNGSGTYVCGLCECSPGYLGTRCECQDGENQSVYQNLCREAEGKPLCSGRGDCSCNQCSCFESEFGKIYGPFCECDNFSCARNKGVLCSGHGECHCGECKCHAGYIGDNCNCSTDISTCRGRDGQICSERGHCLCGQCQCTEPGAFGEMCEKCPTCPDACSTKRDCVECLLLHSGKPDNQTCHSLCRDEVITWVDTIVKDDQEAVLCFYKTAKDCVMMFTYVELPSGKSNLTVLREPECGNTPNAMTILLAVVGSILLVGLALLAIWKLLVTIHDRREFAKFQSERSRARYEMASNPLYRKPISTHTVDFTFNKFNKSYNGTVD

Compound	pIC50 (Integrin alpha-V/beta-3)	pIC50 (Integrin alpha-V/beta-5)	pIC50 [1]	pIC50 (Integrin alpha-5/beta-1)
N=C(N)NOCCOc1ccc2[nH]c(C(=O)NCC(NCc3ccccc3)C(=O)O)cc2c1 (stereo not given)	< 4.70	–	–	–
NC(N)=NOCCOc1ccc2[nH]c(C(=O)NCC(N)C(=O)O)cc2c1 (stereo not given)	< 4.70	–	–	–
Cc1ccc(S(=O)(=O)NC(CNC(=O)c2cc3cc(OCCO/N=C(\N)NC(=O)OC(C)(C)C)ccc3[nH]2)C(=O)O)cc1 (stereo not given)	6.89	–	–	–
N=C(N)NOCCOc1ccc2[nH]c(C(=O)NCC(NC(=O)c3ccccc3)C(=O)O)cc2c1 (stereo not given)	6.51	–	–	–
O=C(NCc1ccccc1)NOCCOc1ccc2[nH]c(C(=O)NCC(NC(=O)OCc3ccccc3)C(=O)O)cc2c1 (stereo not given)	< 4.70	–	–	–
N=C(N)NOCCOc1ccc2[nH]c(C(=O)NC(CC(=O)O)c3cc(Cl)cc(Cl)c3)cc2c1 (stereo not given)	< 7.70	–	–	–

More lines, in order of rising pIC50 (Integrin alpha-V/beta-3), values ahead:

pIC50 (Integrin alpha-V/beta-3)	pIC50 (Integrin alpha-V/beta-5)	pIC50 [1]	pIC50 (Integrin alpha-5/beta-1)	Compound
7.00	< 4.70	6.77	< 4.70	O=C(NCC(NS(=O)(=O)c1ccccc1)C(=O)O)c1cc2cc(OCCONC3=NCCN3)ccc2[nH]1 (stereo not given)
7.98	–	–	–	CCCCS(=O)(=O)NC(CNC(=O)c1cc2cc(OCCON=C(N)N)ccc2[nH]1)C(=O)O (stereo not given)
8.05	–	–	–	Cc1ccc(S(=O)(=O)NC(CNC(=O)c2cc3cc(OCCON=C(N)N)ccc3[nH]2)C(=O)O)cc1 (stereo not given)
8.14	–	–	–	N=C(N)NOCCOc1ccc2[nH]c(C(=O)NCC(NC(=O)OCc3ccccc3)C(=O)O)cc2c1 (stereo not given)
8.21	–	7.60	< 6.00	N=C(N)NOCCOc1ccc2[nH]c(C(=O)NCC(NS(=O)(=O)c3cc(Cl)cc(Cl)c3)C(=O)O)cc2c1 (stereo not given)
8.47	6.00	7.89	–	N=C(N)NOCCOc1ccc2[nH]c(C(=O)NCC(NS(=O)(=O)c3ccccc3)C(=O)O)cc2c1 (stereo not given)
9.40	–	–	–	CC1(C)C2CCC1(S(=O)(=O)NC(CNC(=O)c1cc3cc(OCCONC(=N)N)ccc3[nH]1)C(=O)O)CC2 (stereo not given)
